Calls of active or inactive are those of the source.
Key:
[1] = target: E3 ubiquitin-protein ligase Mdm2 (Homo sapiens, UniProt Q00987); assay: MDM2-luc reporter signal enhancers, multi-concentration potency testing, MDM2 ubiquitin-protein ligase inhibitor program, whole-cell format, luminescence detection, 384-well microplate (AID 1394); format: functional;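 also: MDM2 E3 inhibitors raise luminescence so EC50 is for signal enhancement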
[2] = A cytotoxicity screen of small molecule inhibitors of the PhoP region in Salmonella typhi identified in the primary screen. [Related pubchem assays: 1850, 1864, 1985 ]; format: functional
[3] = HIV-1 Vif–A3G interaction blockers – biochemical, TR-FRET, GST-Vif 1-94, biotin-A3G peptide, dose response retest, primary screen (AID 1117319); format: functional;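 also: TR-FRET signal of purified GST-Vif binding a biotinylated A3G peptide; inhibitors lower the FRET signal by blocking Vif and A3G binding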
Aspartyl aminopeptidase = target: T1, Aspartyl aminopeptidase (Plasmodium falciparum 3D7, UniProt Q8I2J3); assay: Counterscreen for inhibitors of M1 and M17 aminopeptidases: QFRET-based biochemical high throughput dose response assay for inhibitors of the Plasmodium falciparum M18 Aspartyl Aminopeptidase (PFM18AAP). [Related PubChem assays: 1619 (Screening assay (M17LAP inhibitors).), 1445 (Screening assay (M1AAP inhibitors).)]
T1 sequence (Q8I2J3 whole entry): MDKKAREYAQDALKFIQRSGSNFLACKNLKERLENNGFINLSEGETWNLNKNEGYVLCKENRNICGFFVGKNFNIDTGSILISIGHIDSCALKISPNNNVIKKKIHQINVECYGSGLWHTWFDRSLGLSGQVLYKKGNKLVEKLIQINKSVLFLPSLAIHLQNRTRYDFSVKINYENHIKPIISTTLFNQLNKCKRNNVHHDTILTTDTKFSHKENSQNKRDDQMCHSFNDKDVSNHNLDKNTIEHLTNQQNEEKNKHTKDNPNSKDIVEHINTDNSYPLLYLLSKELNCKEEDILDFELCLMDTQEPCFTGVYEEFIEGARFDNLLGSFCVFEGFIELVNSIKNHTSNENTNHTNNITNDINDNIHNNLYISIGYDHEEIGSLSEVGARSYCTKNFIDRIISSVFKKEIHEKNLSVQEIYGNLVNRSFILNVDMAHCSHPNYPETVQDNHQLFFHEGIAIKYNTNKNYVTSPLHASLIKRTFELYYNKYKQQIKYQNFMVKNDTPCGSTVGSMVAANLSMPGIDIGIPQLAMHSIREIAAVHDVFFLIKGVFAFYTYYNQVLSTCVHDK

Procathepsin L = Procathepsin L (Homo sapiens, UniProt P07711); assay: CTSL1 protease inhibition – biochemical, QFRET, 1536-well, counter-screen for M1/M17 aminopeptidase inhibitor project, dose response (AID 2214)
Sequence of Procathepsin L (P07711 whole entry): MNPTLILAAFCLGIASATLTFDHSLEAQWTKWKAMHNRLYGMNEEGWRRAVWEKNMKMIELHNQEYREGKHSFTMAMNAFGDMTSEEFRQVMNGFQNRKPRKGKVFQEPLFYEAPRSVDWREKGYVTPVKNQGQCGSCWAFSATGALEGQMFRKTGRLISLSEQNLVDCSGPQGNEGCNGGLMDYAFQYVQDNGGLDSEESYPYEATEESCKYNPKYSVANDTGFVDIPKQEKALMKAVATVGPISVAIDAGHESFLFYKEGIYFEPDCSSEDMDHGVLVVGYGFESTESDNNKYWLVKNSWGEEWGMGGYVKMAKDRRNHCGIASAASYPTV

Leucine aminopeptidase = target: T2, Leucine aminopeptidase (Plasmodium falciparum 3D7, UniProt Q8IL11); assay: P. falciparum M17LAP inhibitors, primary screen, biochemical, fluorogenic H-Leu-NHMec substrate, 1536-well (AID 1619); format: functional
T2 sequence (Q8IL11 whole entry): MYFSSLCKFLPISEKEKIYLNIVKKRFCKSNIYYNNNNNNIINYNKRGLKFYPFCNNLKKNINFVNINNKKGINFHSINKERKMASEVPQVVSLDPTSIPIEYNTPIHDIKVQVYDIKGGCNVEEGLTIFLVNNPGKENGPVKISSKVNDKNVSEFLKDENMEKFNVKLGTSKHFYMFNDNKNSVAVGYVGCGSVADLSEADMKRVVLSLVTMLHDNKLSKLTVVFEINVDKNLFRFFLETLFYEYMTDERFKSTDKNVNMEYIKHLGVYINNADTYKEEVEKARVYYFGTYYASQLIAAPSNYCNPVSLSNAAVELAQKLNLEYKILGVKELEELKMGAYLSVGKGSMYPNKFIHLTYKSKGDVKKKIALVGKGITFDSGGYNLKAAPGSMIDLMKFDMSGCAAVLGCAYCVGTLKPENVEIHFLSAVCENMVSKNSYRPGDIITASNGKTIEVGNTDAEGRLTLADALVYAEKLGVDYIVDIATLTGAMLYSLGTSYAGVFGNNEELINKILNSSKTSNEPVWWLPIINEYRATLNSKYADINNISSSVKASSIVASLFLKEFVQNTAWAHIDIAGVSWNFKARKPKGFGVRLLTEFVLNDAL

Protein Tat = target: T3, Protein Tat (Human immunodeficiency virus type 1 group M subtype B (isolate HXB2)(HIV-1), UniProt P04608); format: functional;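 also: tat binding to TAR RNA read out by fluorescence polarization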
T3 sequence (P04608 whole entry): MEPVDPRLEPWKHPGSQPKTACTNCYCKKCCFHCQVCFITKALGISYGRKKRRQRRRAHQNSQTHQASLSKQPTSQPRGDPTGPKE

[4] = HCT116 cell viability decrease, GSK3B pretreatment – CellTiter-Glo, IC50, dose response (AID 1117339); format: functional; conditions: HCT-116
[5] = cytotoxicity toward HT-29 cells – cell-based, CellTiter-Glo luminescence, IC50, dose response (AID 1117330); format: functional
[6] = cytotoxicity toward HCT116 cells – cell-based, CellTiter-Glo luminescence, IC50, dose response (AID 1117332); format: functional; conditions: HCT-116
[7] = cytotoxicity toward Colo320 cells – cell-based, CellTiter-Glo luminescence, IC50, dose response (AID 1117334); format: functional; conditions: COLO 320
[8] = Reduced DLD-1 viability, concentration-response, CellTiter-Glo luminescence (AID 1117352); format: functional
[9] = RKO cell viability reduction, dose response, CellTiter-Glo luminescence (AID 1117322); format: functional
[10] = SNU-C1 cell viability reduction, dose response, CellTiter-Glo luminescence (AID 1117323); format: functional, cell-based
[11] = CellTiter-Glo luminescence survival assay, SW480 colon tumor line, concentration-response curve, half-maximal inhibitory concentration (AID 1117338); format: functional
Paired box protein Pax-8 = Paired box protein Pax-8 (Homo sapiens, UniProt Q06710); assay: PAX8 transcriptional activity inhibition in RMG-I – RMG-I cells, luciferase, cherry-pick, dose response (AID 687027); format: functional, cell-based;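 also: luciferase reporter driven by Pax8 target thyroperoxidase promoter measured by SteadyGlo luminescence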
Sequence of Paired box protein Pax-8 (Q06710 whole entry): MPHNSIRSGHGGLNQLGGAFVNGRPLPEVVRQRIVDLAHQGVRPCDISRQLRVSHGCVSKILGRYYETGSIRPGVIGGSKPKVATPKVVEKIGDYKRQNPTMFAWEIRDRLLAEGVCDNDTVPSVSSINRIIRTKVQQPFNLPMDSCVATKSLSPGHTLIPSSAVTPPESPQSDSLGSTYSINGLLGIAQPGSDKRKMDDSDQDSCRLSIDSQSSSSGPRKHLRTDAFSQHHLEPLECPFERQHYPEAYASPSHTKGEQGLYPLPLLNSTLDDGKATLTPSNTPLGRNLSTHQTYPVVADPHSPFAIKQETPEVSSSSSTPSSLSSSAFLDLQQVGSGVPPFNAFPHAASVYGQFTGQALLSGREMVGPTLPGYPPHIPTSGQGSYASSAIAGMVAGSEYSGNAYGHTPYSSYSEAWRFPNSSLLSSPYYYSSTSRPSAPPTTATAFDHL

[12] = OVCAR-3 cell viability loss – plate reader, dry powder samples, PAX8 inhibitor project, dose response (AID 743044); format: functional, cell-based
[13] = IGROV1 cell killing – plate reader, dry powder samples, PAX8 inhibitor project, dose response (AID 743043); format: functional, cell-based; conditions: IGROV-1
[14] = OVCAR8 cell viability loss – plate reader, dry powder samples, PAX8 project, dose response (AID 743197); format: functional, cell-based; conditions: OVCAR-8
Vasopressin V2 receptor = Vasopressin V2 receptor (Homo sapiens, UniProt P30518); assay: Late-stage results from the probe development effort to identify antagonists of arginine vasopressin receptor 1a (AVPR1a): fluorescence-based cell-based dose response AVPR2 inhibition counterscreen assay.; format: functional
Sequence of Vasopressin V2 receptor (P30518 whole entry): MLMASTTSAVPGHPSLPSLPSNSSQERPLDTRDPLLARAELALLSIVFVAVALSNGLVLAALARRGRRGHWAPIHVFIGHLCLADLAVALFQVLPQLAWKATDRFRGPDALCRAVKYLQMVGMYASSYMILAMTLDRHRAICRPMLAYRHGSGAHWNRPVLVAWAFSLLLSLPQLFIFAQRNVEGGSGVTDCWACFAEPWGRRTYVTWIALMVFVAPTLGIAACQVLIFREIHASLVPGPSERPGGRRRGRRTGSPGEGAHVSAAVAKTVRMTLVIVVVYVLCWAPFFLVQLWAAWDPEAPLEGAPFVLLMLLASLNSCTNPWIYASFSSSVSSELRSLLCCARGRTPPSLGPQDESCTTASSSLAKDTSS

[15] = Late-stage results from the probe development effort to identify antagonists of arginine vasopressin receptor 1a (AVPR1a): fluorescence-based cell-based dose response OXTR inhibition counterscreen assay.; format: functional
Vasopressin V1b receptor = Vasopressin V1b receptor (Homo sapiens, UniProt P47901); assay: Late-stage results from the probe development effort to identify antagonists of arginine vasopressin receptor 1a (AVPR1a): fluorescence-based cell-based dose response AVPR1b inhibition counterscreen assay.; format: functional
Sequence of Vasopressin V1b receptor (P47901 whole entry): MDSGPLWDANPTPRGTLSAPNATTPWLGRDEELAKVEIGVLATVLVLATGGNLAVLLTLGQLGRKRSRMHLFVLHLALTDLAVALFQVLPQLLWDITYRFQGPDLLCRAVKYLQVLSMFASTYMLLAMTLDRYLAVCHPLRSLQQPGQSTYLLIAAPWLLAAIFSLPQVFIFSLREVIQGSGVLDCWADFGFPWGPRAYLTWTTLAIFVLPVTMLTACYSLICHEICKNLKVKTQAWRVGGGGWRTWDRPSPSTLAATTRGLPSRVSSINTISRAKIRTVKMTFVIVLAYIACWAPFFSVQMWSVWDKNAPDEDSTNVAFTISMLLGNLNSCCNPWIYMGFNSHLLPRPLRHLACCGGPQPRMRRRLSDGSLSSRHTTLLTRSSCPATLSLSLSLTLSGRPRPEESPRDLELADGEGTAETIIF

[16] = Late-stage results from the probe development effort to identify antagonists of arginine vasopressin receptor 1a (AVPR1a): fluorescence-based cell-based dose response AVPR1a inhibition assay.; format: functional
[17] = Dd2 parasite growth inhibition in erythrocytes – SYBR Green, dry powder samples, set 9, dose response (AID 1159568); format: functional, cell-based
[18] = IC50 of insulin release inhibition, rat insulinoma INS-1E line, 5 mM glucose, cell-based (AID 1117331); format: functional
Cytochrome P450 1A2 = target: T4, Cytochrome P450 1A2 (Homo sapiens, UniProt P05177);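 also: PubChem cytochrome P450 panel assay, CYP1A2 panel member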
T4 sequence (P05177 whole entry): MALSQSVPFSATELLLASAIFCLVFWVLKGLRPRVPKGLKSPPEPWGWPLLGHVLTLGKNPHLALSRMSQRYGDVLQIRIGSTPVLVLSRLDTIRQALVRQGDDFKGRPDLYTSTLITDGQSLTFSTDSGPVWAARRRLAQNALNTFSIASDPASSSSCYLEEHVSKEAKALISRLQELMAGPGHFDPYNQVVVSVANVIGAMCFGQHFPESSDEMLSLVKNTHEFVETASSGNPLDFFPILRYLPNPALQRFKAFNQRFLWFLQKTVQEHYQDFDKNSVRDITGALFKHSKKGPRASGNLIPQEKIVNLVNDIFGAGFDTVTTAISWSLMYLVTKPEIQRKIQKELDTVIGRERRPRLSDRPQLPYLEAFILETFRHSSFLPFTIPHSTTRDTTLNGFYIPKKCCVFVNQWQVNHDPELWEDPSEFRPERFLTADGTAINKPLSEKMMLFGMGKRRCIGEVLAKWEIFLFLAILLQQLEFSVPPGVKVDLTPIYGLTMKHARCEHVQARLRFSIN

Sequence of E3 ubiquitin-protein ligase Mdm2 (Q00987 whole entry): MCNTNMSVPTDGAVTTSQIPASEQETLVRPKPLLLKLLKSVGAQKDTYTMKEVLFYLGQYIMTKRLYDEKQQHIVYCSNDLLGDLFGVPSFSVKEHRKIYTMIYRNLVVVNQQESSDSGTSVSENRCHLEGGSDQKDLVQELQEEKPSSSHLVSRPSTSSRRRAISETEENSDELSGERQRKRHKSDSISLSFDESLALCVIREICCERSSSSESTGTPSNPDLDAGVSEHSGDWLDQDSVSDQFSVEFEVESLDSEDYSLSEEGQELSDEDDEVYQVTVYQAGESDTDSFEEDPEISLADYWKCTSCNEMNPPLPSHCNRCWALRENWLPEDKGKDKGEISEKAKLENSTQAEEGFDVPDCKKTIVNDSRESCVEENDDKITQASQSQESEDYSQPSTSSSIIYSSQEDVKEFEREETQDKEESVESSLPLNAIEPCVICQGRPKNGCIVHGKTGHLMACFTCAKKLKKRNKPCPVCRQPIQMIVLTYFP

Cc1ccc(C)c(NC(=O)C(Sc2nnc(-c3cccs3)o2)c2ccccc2)c1 (stereo not given)
EC50 [1]: 25 µM (not active)

COC(=O)c1ccc(CSc2nc3ccccc3c(=O)n2-c2ccc(OC)c(OC)c2)o1
EC50 [2]: > 50 µM (active) | IC50 [3]: > 100 µM (active)

Cc1cccc(Nc2nnc(SC3CCOC3=O)s2)c1C (stereo not given)
IC50 (Aspartyl aminopeptidase): > 73.5 µM (not active) | IC50 (Procathepsin L): > 59.6 µM (not active) | IC50 (Leucine aminopeptidase): 2.23 µM (active)

CCOc1ccc(Nc2nc3ccccc3n3nnnc23)cc1
IC50 [3]: > 100 µM (active) | IC50 (Protein Tat): > 100 µM (active)

N=C(NN=Cc1ccc(Cl)cc1)NN=Cc1ccc(Cl)cc1
IC50 [4]: 0.344 µM (active) | IC50 [5]: 0.681 µM (active) | IC50 [6]: 0.394 µM (active) | IC50 [7]: 0.458 µM (active) | IC50 [8]: 0.654 µM (active) | IC50 [9]: 0.47 µM (active) | IC50 [10]: 0.28 µM (active) | IC50 [11]: 0.225 µM (active)

Cc1ccc(S(=O)(=O)N(C)C[C@H]2OCCCC[C@H](C)Oc3ccc(NS(=O)(=O)c4ccc(F)cc4)cc3C(=O)N([C@H](C)CO)C[C@@H]2C)cc1
AC50 (Paired box protein Pax-8): 3.32 µM (active) | AC50 [12]: 29.3 µM (active) | AC50 [13]: 67.9 µM (active) | AC50 [14]: > 70 µM (inactive)

Cc1ccnc(N2CCC(C(=O)N(CC3CC3)c3ccc(Cl)cc3)CC2)c1
IC50 (Vasopressin V2 receptor): 13.6 µM (inactive) | IC50 [15]: 9.1 µM (active) | IC50 (Vasopressin V1b receptor): 18.2 µM (inactive) | IC50 [16]: 0.0052 µM (active)

CN1c2ccc(C#Cc3cccnc3)cc2[C@@H]2[C@@H](CCN2C(=O)c2cccc(F)c2)[C@@H]1CO
AC50 [17]: 4.46 µM (active)

O=C1NCN(c2ccccc2)C12CCN(CCCOc1ccc(F)cc1)CC2 [SPIRAMIDE]
IC50 [4]: 5.33 µM (inactive) | IC50 [5]: 2.46 µM (active) | IC50 [6]: 8.82 µM (inactive) | IC50 [7]: 11.8 µM (inactive) | IC50 [8]: 0.882 µM (active) | IC50 [9]: 5.31 µM (inactive) | IC50 [18]: > 33.3 µM (inactive) | AC50 (Cytochrome P450 1A2): 39.8 µM (inconclusive) | IC50 [10]: 0.242 µM (active) | IC50 [11]: 4.61 µM (active)
